Laboratory results published in patent US10981906B2, “Substituted pyrrolopyridine JAK inhibitors and methods of making and using the same” (ACLARIS THERAPEUTICS, INC., priority 2017, dated 2021).
Read-outs that look alike come from different tables or passages of the source.

Experiments:
JAK1 = JAK1 (Homo sapiens (Human), UniProt P23458); assay: JAK1 enzyme activity assay (Thermo Fisher SelectScreen Z-lyte); format: biochemical; conditions: 1 hour kinase reaction, read-out: JAK1 Inhibition IC50
Experimental: The inhibitory potency of candidate compounds of JAK1 done at Thermo Fisher Scientific in their Selectscreen using a Z-lyte assay. The 2×JAK1/Tyr 06 mixture is prepared in 50 mM HEPES pH 6.5, 0.01% BRIJ-35, 10 mM MgCl2, 1 mM EGTA, 0.02% NaN3. The final 10 μL of the Kinase Reaction consists of 21.2-91.5 ng JAK1 and 2 μM Tyr 06 in 50 mM HEPES pH 7.0, 0.01% BRIJ-35, 10 mM MgCl2, 1 mM EGTA, 0.01% NaN3. After the 1 hour Kinase Reaction incubation, 5 μL of a 1:128 dilution of Development Reagent is added.
(§1) Background signal is defined in the absence of enzyme and uninhibited signal is defined in the presence of vehicle (2% DMSO) alone. Compounds were evaluated in an 11 point dose-response ranging from […] to 0.34 nM. IC50 values of compounds are determined using a 4 parameter logistical fit of emission ratio as a function of the concentration of compound.

JAK3 (a.a. 781-1124) = JAK3 (a.a. 781-1124) (Homo sapiens (Human), UniProt P52333); assay: JAK3 enzyme activity assay (SRCtide phosphorylation, Caliper); format: biochemical; conditions: 2.5 nM JAK3, 1 μM SRCtide, 1 uM ATP, 40 minutes; read-out: JAK3 Inhibition IC50
Experimental: The activity of JAK3 (a.a. 781-1124, ThermoFisher) was quantified by measuring the phosphorylation of SRCtide (FAM-GEEPLYWSFPAKKK-NH2). Kinase reactions were run in a 384-well Greiner plate with 2% final DMSO concentration under the buffer conditions of 20 mM HEPES, pH 7.5, 10 mM MgCl2, 0.01% BSA, and 0.0005% Tween-20. The kinase reaction components were 2.5 nM JAK3, 1 μM SRCtide peptide and 1 uM ATP. Examples were tested in dose-response starting at 2 μM (11 concentrations, 3-fold serial dilution, duplicate reactions). The reactions were incubated at room temperature for 40 minutes, then stopped by adding a 1:1 volume of 30 mM EDTA in 20 mM HEPES, pH 7.5 (15 mM EDTA final). After the reaction was stopped, the phosphorylated and unphosphorylated peptides were separated and quantified using a Caliper LC3000/EZ-Reader system and HTS Well Analyzer Software (Caliper, A PerkinElmer Company, Hopkinton, Mass.). GraFit (Erithacus Software Ltd., Horley, U.K.) was used to calculate inhibitor potency by fitting dose-response data to the 4-parameter logistical IC50 equation.
as §1

[1] = test system: IL-2 stimulated STAT5 phosphorylation on Tyr694 (JAK1/3); assay: JAK1/3 cellular target modulation: IL-2 stimulated phospho-STAT5 in PBMC; format: cell-based; conditions: IL-2 25 ng/ml, 1 hour compound preincubation, read-out: IL2-STAT5 Inhibition IC50
Text: (§2) Target modulation was based upon the ability of a compound to inhibit JAK isoform specific phosphorylation of selected substrates. IL-2 stimulated STAT5 phosphorylation on Tyr694 was used to assess JAK1/3 compound selectivity. GM-CSF stimulated STAT5 phosphorylation on Tyr694 was used to assess JAK2 compound selectivity. IFNγ stimulated STAT1 phosphorylation on Tyr701 was used to assess JAK1/2 compound selectivity. For all three assays, human PBMC from frozen stocks were thawed, pelleted, resuspended in complete media (90% RPMI, 10% heat inactivated FBS, 10 mM HEPES, 47 μM 2-ME, pen/strep) and placed in wells of a 96 well V-bottom plate at 200,000 per well in 120 μl complete media. Compounds were added as 15 μl per well of 10× working stock solutions in complete media with 1% DMSO (or medium with 1% DMSO for controls) and placed on a plate shaker in a 37° C. incubator with 5% CO2 for 1 hour with gentle shaking (setting of 3). Stimulation used the addition of soluble cytokines. For the JAK1/3 phospho-STAT5 assay, 15 μl of 10× working stock recombinant human IL-2 was added to a final concentration of 25 ng/ml. For the JAK2 phospho-STAT5 assay, 15 μl of 10× working stock recombinant human GM-CSF was added to a final concentration of 5 ng/ml. For the JAK1/2 phospho-STAT1 assay, 15 μl of 10× working stock of recombinant human IFNγ was added to a final concentration of 10 ng/ml. Plates were then placed back on the plate shaker in the incubator for an additional 5, 5 and 10 minutes respectively upon which the plates were removed from the incubator, sealed with a plate sealer and the cells pelleted at 400×g for 5 minutes. After pelleting, the media was removed by aspiration and the cells were lysed in ELISA specific cell lysis buffer. The levels of phospho-STAT5 were determined using a Phospho (Tyr694)/Total STAT5a,b Whole Cell Lysate kit from Meso Scale Discovery. Levels of phospho-STAT1 were determined using a CST-PathScan Phospho-STAT1 (Tyr701) Sandwich ELISA kit.

[2] = test system: IFNγ stimulated STAT1 phosphorylation on Tyr701 (JAK1/2); assay: JAK1/2 cellular target modulation: IFNγ stimulated phospho-STAT1 in PBMC; format: cell-based; conditions: IFNγ 10 ng/ml, 1 hour compound preincubation, read-out: Infγ-STAT1 IC50
Text: as §2

Sequence of JAK3 (a.a. 781-1124) (P52333 781-1124): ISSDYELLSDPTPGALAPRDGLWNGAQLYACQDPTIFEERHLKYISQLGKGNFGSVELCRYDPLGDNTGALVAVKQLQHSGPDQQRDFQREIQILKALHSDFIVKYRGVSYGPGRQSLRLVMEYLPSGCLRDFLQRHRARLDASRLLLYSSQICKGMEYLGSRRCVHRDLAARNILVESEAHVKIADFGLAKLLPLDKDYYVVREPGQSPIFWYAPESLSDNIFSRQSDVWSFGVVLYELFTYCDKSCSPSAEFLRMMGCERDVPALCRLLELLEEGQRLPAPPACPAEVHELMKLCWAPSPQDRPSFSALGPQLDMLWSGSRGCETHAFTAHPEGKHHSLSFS
Sequence of JAK1 (P23458 whole entry): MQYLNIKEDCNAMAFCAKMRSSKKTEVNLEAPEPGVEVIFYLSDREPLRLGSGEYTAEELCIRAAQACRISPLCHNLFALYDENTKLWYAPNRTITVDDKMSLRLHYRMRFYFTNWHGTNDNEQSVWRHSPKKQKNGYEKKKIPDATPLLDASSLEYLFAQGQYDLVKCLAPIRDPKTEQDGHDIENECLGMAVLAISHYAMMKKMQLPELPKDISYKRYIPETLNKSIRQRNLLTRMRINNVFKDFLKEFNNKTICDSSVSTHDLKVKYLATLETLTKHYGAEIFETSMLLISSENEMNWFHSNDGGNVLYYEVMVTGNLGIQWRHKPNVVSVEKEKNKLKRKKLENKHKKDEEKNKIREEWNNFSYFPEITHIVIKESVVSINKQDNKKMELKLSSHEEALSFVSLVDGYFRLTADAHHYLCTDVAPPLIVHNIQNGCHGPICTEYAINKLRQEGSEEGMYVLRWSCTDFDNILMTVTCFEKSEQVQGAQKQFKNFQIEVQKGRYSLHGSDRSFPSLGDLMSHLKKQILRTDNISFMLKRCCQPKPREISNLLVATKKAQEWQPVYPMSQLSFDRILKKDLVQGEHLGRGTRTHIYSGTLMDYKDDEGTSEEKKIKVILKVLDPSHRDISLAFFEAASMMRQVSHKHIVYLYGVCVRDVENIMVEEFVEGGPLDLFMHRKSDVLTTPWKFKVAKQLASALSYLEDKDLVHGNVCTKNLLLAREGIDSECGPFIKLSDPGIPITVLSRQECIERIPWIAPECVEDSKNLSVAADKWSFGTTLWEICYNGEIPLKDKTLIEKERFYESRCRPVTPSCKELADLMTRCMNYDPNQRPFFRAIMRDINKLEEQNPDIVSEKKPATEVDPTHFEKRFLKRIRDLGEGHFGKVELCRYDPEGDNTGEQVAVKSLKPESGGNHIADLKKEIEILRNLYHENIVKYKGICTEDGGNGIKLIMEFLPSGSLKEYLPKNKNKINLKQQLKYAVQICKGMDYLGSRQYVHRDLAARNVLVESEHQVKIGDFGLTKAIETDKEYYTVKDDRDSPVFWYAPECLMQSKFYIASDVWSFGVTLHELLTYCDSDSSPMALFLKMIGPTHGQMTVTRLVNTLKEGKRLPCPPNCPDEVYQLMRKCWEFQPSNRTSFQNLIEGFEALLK

IC50 (JAK1) [nM]	IC50 (JAK3 (a.a. 781-1124)) [nM]	IC50 ([1]; Homo sapiens, PBMC) [nM]	IC50 ([2]; Homo sapiens, PBMC) [nM]	SMILES	IC50 ([2]; human PBMC) [nM]	IC50 ([1]; human PBMC) [nM]
10 to 100	10 to 100	100 to 1000	> 1000	CCOC(=O)c1cnc2[nH]ccc2c1N[C@@H]1CC[C@@H](O)C1 (single isomer, unassigned) [Example 72, (trans)-ethyl 4-((3-hydroxycyclopentyl)amino)-1H-pyrrolo [2,3-b]pyridine-5-carboxylate]	–	–
10 to 100	10 to 100	100 to 1000	> 1000	CCOC(=O)c1cnc2[nH]ccc2c1N[C@H]1CC[C@H](O)C1 (single isomer, unassigned) [Example 75, (trans)-ethyl 4-((3-hydroxycyclopentyl)amino)-1H-pyrrolo[2,3-b]pyridine-5-carboxylate]	–	–
≤ 10	≤ 10	≤ 100	≤ 100	CCOC(=O)c1cnc2[nH]ccc2c1N[C@H]1CCC[C@@H](CCC#N)C1 (single isomer, unassigned; enantiomer 1) [Example 135, (cis) ethyl 4-((3-(2-cyanoethyl)cyclohexyl)amino)-1H-pyrrolo[2,3-b]pyridine-5-carboxylate, enantiomer 1]	–	–
≤ 10	≤ 10	≤ 100	> 1000	CCOC(=O)c1cnc2[nH]ccc2c1N[C@@H]1CCC[C@@H](CCC#N)C1 (single isomer, unassigned; enantiomer 1) [Example 137, (trans) ethyl 4-((3-(2-cyanoethyl)cyclohexyl)amino)-1H-pyrrolo[2,3-b]pyridine-5-carboxylate enantiomer 1]	–	–
100 to 1000	10 to 100	100 to 1000	> 1000	COCCOC(=O)c1cnc2[nH]ccc2c1N[C@H]1CCC[C@@H](CCC#N)C1 (single isomer, unassigned; enantiomer 1) [Example 149, cis-2-methoxyethyl 4-((3-(2-cyanoethyl)cyclohexyl)amino)-1H-pyrrolo[2,3-b]pyridine-5-carboxylate, enantiomer 1]	–	–
10 to 100	10 to 100	100 to 1000	> 1000	CCOC(=O)c1cnc2[nH]ccc2c1N[C@@H]1CCC[C@H](CCC#N)C1 (single isomer, unassigned; enantiomer 2) [Example 136, (cis) ethyl 4-((3-(2-cyanoethyl)cyclohexyl)amino)-1H-pyrrolo[2,3-b]pyridine-5-carboxylate, enantiomer 2]	–	–
10 to 100	≤ 10	100 to 1000	100 to 1000	CCOC(=O)c1cnc2[nH]ccc2c1N[C@H]1CCC[C@H](CCC#N)C1 (single isomer, unassigned; enantiomer 2) [Example 138, (trans)-ethyl 4-((3-(2-cyanoethyl)cyclohexyl)amino)-1H-pyrrolo[2,3-b]pyridine-5-carboxylate, enantiomer 2]	–	–
≤ 10	≤ 10	≤ 100	100 to 1000	COCCOC(=O)c1cnc2[nH]ccc2c1N[C@@H]1CCC[C@H](CCC#N)C1 (single isomer, unassigned; enantiomer 2) [Example 150, cis 2-methoxyethyl 4-((3-(2-cyanoethyl)cyclohexyl)amino)-1H-pyrrolo[2,3-b]pyridine-5-carboxylate, enantiomer 2]	–	–
100 to 1000	10 to 100	100 to 1000	> 1000	CCOC(=O)c1cnc2[nH]ccc2c1NC1CCC(CCC#N)C1 (single isomer, unassigned; stereoisomer 1) [Example 154, Ethyl 4-((3-(2-cyanoethyl)cyclopentyl)amino)-1H-pyrrolo[2,3-b]pyridine-5-carboxylate, single stereoisomer 1]	–	–
100 to 1000	10 to 100	–	–	CCOC(=O)c1cnc2[nH]ccc2c1NC1CCC(CCC#N)C1 (single isomer, unassigned; stereoisomer 2) [Example 155, Ethyl 4-((3-(2-cyanoethyl)cyclopentyl)amino)-1H-pyrrolo[2,3-b]pyridine-5-carboxylate, single stereoisomer 2]	> 1000	100 to 1000
10 to 100	10 to 100	100 to 1000	> 1000	CCOC(=O)c1cnc2[nH]ccc2c1N(C)[C@H]1CN(C(=O)CC#N)CC[C@H]1C [Example 1, ethyl 4-(((3R,4R)-1-(2-cyanoacetyl)-4-methylpiperidin-3-yl)(methyl)amino)-1H-pyrrolo[2,3-b]pyridine-5-carboxylate]	–	–
≤ 10	≤ 10	≤ 100	100 to 1000	CCOC(=O)c1cnc2[nH]ccc2c1N[C@H]1CN(C(=O)CC#N)CC[C@H]1C [Example 3, ethyl 4-(((3R,4R)-1-(2-cyanoacetyl)-4-methylpiperidin-3-yl)amino)-1H-pyrrolo[2,3-b]pyridine-5-carboxylate]	–	–
10 to 100	≤ 10	100 to 1000	> 1000	COCCOC(=O)c1cnc2[nH]ccc2c1N[C@H]1CN(C(=O)CC#N)CC[C@H]1C [Example 21, 2-methoxyethyl 4-(((3R,4R)-1-(2-cyanoacetyl)-4-methylpiperidin-3-yl)amino)-1H-pyrrolo[2,3-b]pyridine-5-carboxylate]	–	–
≤ 10	≤ 10	≤ 100	100 to 1000	CCOC(=O)c1cnc2[nH]ccc2c1N[C@H]1CN(CCC#N)CC[C@H]1C [Example 24, ethyl 4-(((3R,4R)-1-(2-cyanoethyl)-4-methylpiperidin-3-yl)amino)-1H-pyrrolo[2,3-b]pyridine-5-carboxylate]	–	–

SMILES	IC50 (JAK1) [nM]	IC50 (JAK3 (a.a. 781-1124)) [nM]	IC50 ([1]; Homo sapiens, PBMC) [nM]	IC50 ([2]; Homo sapiens, PBMC) [nM]	IC50 ([2]; human PBMC) [nM]	IC50 ([1]; human PBMC) [nM]
CCOC(=O)c1cnc2[nH]ccc2c1N[C@H]1CC[C@H](OC(=O)CC#N)C1 (single isomer, unassigned) [Example 73, (trans)-ethyl 4-((3-(2-cyanoacetoxy)cyclopentyl)amino)-1H-pyrrolo [2,3-b]pyridine-5-carboxylate]	≤ 10	10 to 100	≤ 100	–	≤ 100	–
CCOC(=O)c1cnc2[nH]ccc2c1N[C@H]1CC[C@H](OC(=O)CC#N)C1 (single isomer, unassigned) [Example 74, (trans)-ethyl 4-((3-(2-cyanoacetoxy)cyclopentyl)amino)-1H-pyrrolo[2,3-b]pyridine-5-carboxylate]	10 to 100	10 to 100	–	–	> 1000	100 to 1000
